Columns and labels:
Assay type in all cases: biochemical
PKCθ = target: T1, PKCθ (Homo sapiens, UniProt Q04759); assay: Ki Pan Vera (PV) potency for PKCθ; details: Ki Pan Vera (PV) of PKCθ
T1 construct: purchased Pan Vera
Protocol: (§1) For Ki Pan Vera (PV) of PKCθ, entries identified with “A” had values below 100 nM; entries identified with “B” had values below 1 μM; and entries identified with “C” had values below 10 μM.

PKC delta = target: T2, PKC delta (Homo sapiens, UniProt Q05655); assay: Ki Pan Vera (PV) potency for PKC delta; details: Ki Pan Vera (PV) of PKC delta
T2 construct: purchased Pan Vera
T2 sequence (Q05655 whole entry): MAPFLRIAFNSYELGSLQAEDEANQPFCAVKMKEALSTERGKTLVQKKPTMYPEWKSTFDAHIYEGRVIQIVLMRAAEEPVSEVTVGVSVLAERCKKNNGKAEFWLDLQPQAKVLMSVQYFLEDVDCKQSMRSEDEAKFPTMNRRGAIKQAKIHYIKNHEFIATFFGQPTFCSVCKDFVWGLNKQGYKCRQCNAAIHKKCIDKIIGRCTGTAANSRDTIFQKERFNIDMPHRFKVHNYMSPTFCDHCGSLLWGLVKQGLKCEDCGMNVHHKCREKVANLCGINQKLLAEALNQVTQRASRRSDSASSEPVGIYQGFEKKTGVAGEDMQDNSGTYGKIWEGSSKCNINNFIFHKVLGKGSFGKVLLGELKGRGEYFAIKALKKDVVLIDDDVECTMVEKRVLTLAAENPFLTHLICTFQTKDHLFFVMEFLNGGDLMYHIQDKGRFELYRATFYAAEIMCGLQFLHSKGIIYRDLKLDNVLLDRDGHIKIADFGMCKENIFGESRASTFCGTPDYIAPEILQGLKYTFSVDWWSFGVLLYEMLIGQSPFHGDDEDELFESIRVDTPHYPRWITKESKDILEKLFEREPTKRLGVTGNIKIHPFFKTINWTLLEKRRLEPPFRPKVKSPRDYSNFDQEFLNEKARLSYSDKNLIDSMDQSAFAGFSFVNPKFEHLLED
Protocol: [The source words this procedure for another target and reports this target under the same test.] as §1

PKC alpha = target: T3, PKC alpha (Homo sapiens, UniProt P17252); assay: Ki Pan Vera (PV) potency for PKC alpha; details: Ki Pan Vera (PV) of PKC alpha
T3 construct: purchased Pan Vera
Protocol: [The source words this procedure for another target and reports this target under the same test.] as §1

T1 sequence (Q04759 whole entry): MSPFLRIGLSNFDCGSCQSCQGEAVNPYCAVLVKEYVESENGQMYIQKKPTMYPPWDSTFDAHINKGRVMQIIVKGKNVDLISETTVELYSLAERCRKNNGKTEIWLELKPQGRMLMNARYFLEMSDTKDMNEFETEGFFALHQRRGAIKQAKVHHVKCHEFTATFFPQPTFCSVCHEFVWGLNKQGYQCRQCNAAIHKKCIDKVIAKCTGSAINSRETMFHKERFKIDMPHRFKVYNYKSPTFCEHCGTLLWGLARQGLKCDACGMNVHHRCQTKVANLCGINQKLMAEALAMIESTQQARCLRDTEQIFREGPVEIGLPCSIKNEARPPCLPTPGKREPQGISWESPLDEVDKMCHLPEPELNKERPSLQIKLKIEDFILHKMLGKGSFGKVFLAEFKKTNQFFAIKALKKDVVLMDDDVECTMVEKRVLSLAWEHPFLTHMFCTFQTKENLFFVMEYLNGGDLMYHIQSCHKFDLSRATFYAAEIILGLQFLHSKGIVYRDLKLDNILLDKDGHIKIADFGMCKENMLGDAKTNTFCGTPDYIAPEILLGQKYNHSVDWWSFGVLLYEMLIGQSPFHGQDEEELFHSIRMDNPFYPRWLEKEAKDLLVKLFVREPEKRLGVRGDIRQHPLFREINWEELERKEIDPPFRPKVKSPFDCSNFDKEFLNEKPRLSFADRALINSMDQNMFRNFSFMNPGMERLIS

Ki (PKCθ)	Ki (PKC delta)	Ki (PKC alpha)	Structure (SMILES)
< 1 µM	> 1 µM	> 1 µM	Fc1ccc(CNc2ncc3nc(-c4c(Cl)cccc4Cl)n(C[C@H]4CCNC4)c3n2)c(F)c1 [Compound 140]
< 1 µM	> 1 µM	> 1 µM	Fc1cccc(CNc2ncc3nc(-c4ccccc4Cl)n(C[C@@H]4CCCNC4)c3n2)c1 [Compound 152]
< 1 µM	> 1 µM	> 10 µM	Fc1cccc(Cl)c1-c1nc2cnc(NCc3cccs3)nc2n1C[C@@H]1CCCNC1 [Compound 169]
< 10 µM	> 1 µM	> 10 µM	Fc1cccc(Cl)c1-c1nc2cnc(NCc3ccc(Cl)c(Cl)c3)nc2n1C[C@@H]1CCCNC1 [Compound 132]
< 0.1 µM	> 1 µM	> 1 µM	Clc1cccc(Cl)c1-c1nc2cnc(NCc3cccs3)nc2n1C[C@@H]1CCCNC1 [Compound 119, (R)-8-(2,6-dichlorophenyl)-9-(piperidin-3-ylmethyl)-N-(thiophen-2-ylmethyl)-9H-purin-2-amine]
< 1 µM	> 1 µM	> 1 µM	Clc1cccc(Cl)c1-c1nc2cnc(NCc3ccccn3)nc2n1CC1CCNC1 (stereo not drawn) [Compound 262]
< 1 µM	> 1 µM	> 10 µM	Fc1ccc(CNc2ncc3nc(-c4c(F)cccc4Cl)n(CC4CCNC4)c3n2)cc1Cl (stereo not drawn) [Compound 204]
< 1 µM	> 1 µM	> 1 µM	Fc1ccccc1CNc1ncc2nc(-c3cccc(F)c3F)n(CCC3CCNCC3)c2n1 [Compound 238]
< 1 µM	> 1 µM	> 1 µM	Fc1cccc(Cl)c1-c1nc2cnc(NCc3ccccc3)nc2n1C[C@@H]1CCCNC1 [Compound 145]
< 1 µM	> 1 µM	> 1 µM	Clc1cccc(CNc2ncc3nc(-c4c(Cl)cccc4Cl)n(CC4CCNC4)c3n2)c1 (stereo not drawn) [Compound 157]
< 1 µM	> 1 µM	> 1 µM	Fc1cccc(CNc2ncc3nc(-c4c(F)cccc4Cl)n(C[C@@H]4CCCNC4)c3n2)c1 [Compound 123]
< 10 µM	> 1 µM	> 10 µM	Clc1ccc(CNc2ncc3nc(-c4ccccc4Cl)n(C[C@@H]4CCCNC4)c3n2)cc1Cl [Compound 165]
< 1 µM	> 1 µM	> 1 µM	Fc1ccc(Cl)cc1CNc1ncc2nc(-c3c(Cl)cccc3Cl)n(CC3CCNC3)c2n1 (stereo not drawn) [Compound 159]
< 1 µM	> 1 µM	> 10 µM	Clc1cccc(Cl)c1-c1nc2cnc(NCc3cccs3)nc2n1CCC1CCNCC1 [Compound 203]
< 0.1 µM	> 0.25 µM	> 1 µM	Fc1cccc(CNc2ncc3nc(-c4c(Cl)cccc4Cl)n(C[C@@H]4CCCNC4)c3n2)c1 [Compound 103]
< 1 µM	> 1 µM	> 1 µM	Fc1ccc(CNc2ncc3nc(-c4c(Cl)cccc4Cl)n(CC4CCNC4)c3n2)cc1Cl (stereo not drawn) [Compound 139]
< 1 µM	> 1 µM	> 1 µM	Fc1ccccc1CNc1ncc2nc(-c3c(Cl)cccc3Cl)n(C[C@@H]3CCNC3)c2n1 [Compound 220]
< 1 µM	> 1 µM	> 10 µM	Clc1ccc(CNc2ncc3nc(-c4c(Cl)cccc4Cl)n(C[C@@H]4CCCNC4)c3n2)cc1Cl [Compound 107]
< 1 µM	> 1 µM	> 1 µM	C[C@H](Nc1ncc2nc(-c3c(F)cccc3Cl)n(C[C@H]3CCNC3)c2n1)c1ccccc1F [Compound 226]

Source: patent US20110046131A1, “PURINES AS PKC-THETA INHIBITORS” (N.V. Organon and Pharmacopeia, LLC, priority 2006, published 2011)
